Assay results: patent US20110060028A1, “COMBINATION THERAPY” (UNIVERSITY OF YORK, priority 2007, published 2011)
d = 2'-deoxy (DNA)

Assays:
Type in all cases: cell-based, human
[1] = test system: SIRT1; assay: Immunoblotting of total SIRT1, SIRT1 S27P and SIRT1 S47P
Method: (§1) Epithelial cancer cell lines RKO, LoVo, DLD-1, HT29, U2OS, SAOS-2, MCF7, HTB-126, HT-1080 and SiHa were obtained from ATCC. Isogenic colorectal carcinoma cell lines HCT116 p53+/+ and HCT116 p53−/− were a kind gift of Bert Vogelstein. Non-cancer cells were normal diploid fibroblasts (NDF) and ARPE-19 immortalised retinal epithelial cells (ATCC), and normal human embryonic keratinocytes (NHEK, Invitrogen). Cells were cultured according to the supplier's protocols. siRNA sequences, transfection protocols and target validations were as described (Ref. 27 and Methods). For drug treatments, cells were treated 48 hours post-plating with final concentration of 5-FU (375 OM) and uridine (425 OM) as indicated and harvested 24 h later. For combined transfection/drug treatment, drugs were applied 24 h post-transfection and cells harvested 24 h later. For time course analyses cells were harvested at indicated time points post-treatment.
(§2) Cells were prepared as described (Methods). For immunoblotting equivalent numbers of cells, or equivalent amounts of protein, were loaded in each lane. Antibodies were: Anti-SIRT1 (H-300, Santa Cruz), anti-phosphoserine27-SIRT1 (#2327, Cell Signaling), anti-phosphoserine47-SIRT1 (#2314, Cell Signaling), anti-actin (MAB1501, Chemicon), anti-p53 (00-1, Santa Cruz), anti-acetylated-p53-lysine382 (#2525, Cell Signaling), anti-JNK1 (F-3, Santa Cruz), anti-JNK2 (#4672, Cell Signaling). Visualisation of bound antibodies was by ECL, with quantitation by densitometry of signals within the linear range.
(§3) Cells for transfection and/or drug treatment were plated at a density of 6×10^4 (ARPE-19) or 1.4×10^5 (HCT116) per well in 6-well plates. For the experiment in FIG. 3a, ARPE-19 cells were plated at a density of 4×10^4 per well. Transfections were performed 24 hours post-plating in Opti-MEM (Gibco) using Oligofectamine (Invitrogen) according to the manufacturer's instructions. Chemically synthesized, HPLC-purified siRNAs were obtained from Qiagen or Dharmacon. SIRT1 siRNA sequence has been described^27. JNK1 siRNA sequences were: Sense 5′-CUCCACCACCAAAGAUCCC(dTdT)-3′, antisense 5′-GGGAUCUUUGGUGGUGGAG(dTdT)-3′. JNK2 siRNA sequences were: Sense 5′-GAGCUGGUGAAAGGUUGUG(dTdT)-3′, antisense 5′-CACAACCUUU CACCAGCUC(dTdT)-3′. Specificities of SIRT1 siRNA, JNK1 sIRNA and JNK2 siRNA have been validated previously¢ (Ahmed and Milner, in submission). Cells were harvested for analysis 48 h post-transfection, except where indicated otherwise. For drug treatment, drugs were applied by complete media replacement 48 h post-plating at final concentration 375 μM (5-FU) or 425 μM (uridine). Cells were harvested for analysis 24h following application of drugs, or at the indicated timepoints for time-course analysis. For combined transfection/drug experiments, drugs were applied approximately 20 hours post-transfection. Cells from combined transfection/drug experiments were harvested for analysis after 24 hours of drug exposure (˜48 hours post-transfection).
For preparation of total protein lysates, cell counts or protein assay was performed, with the method chosen consistent within each experiment. Cells were lysed in lysis buffer IPAMN (10 mM TRIS base pH 8.0, 140 mM NaCl, 2 mM CaCl2, 0.5% NP-40, 5 U ml^−1 micrococcal nuclease) for 3 minutes at room temperature followed by addition of 0.25× volumes of 6×SDS-PAGE sample buffer and brief heating to 90° C. Samples for protein assay were withdrawn before addition of 6×SDS-PAGE sample buffer, and assayed using BCA Protein Assay Kit (Pierce) according to the manufacturers instructions. Equivalent numbers of cells, or equivalent amounts of protein, were electrophoresed on 10% or 15% SDS-PAGE, electrobiotted to Protran membrane (Schleicher&Schuell) using a wet-blot transfer system, blocked for 1 hour at room temperature and probed with primary antibodies overnight at 4° C. […]

[2] = test system: SIRT1 mRNA; assay: Quantitative RT-PCR of SIRT1 mRNA; details: for SIRT1 mRNA estimated t1/2: following administration of 5-FU
Method: as §1
Cellular mRNAs were extracted for quantitative RT-PCR as previously described^27. Primers and thermal cycling conditions were as described^27 (Methods); quantifications were performed in triplicate.
as §3
Relative mRNA levels were quantitated by realtime RT-PCR. […] SIRT1 primers 5′-[…]-3′ and 5′-[…]-3′ were used in the thermal cycle: 50° C. for 30 minutes, 94° C. for 15 minutes, followed by 35 cycles of 94° C. for 30 seconds, 55° C. for 30 seconds, 72° C. for 30 seconds, then 75° C. for 15 seconds before the plate was read. JNK1 primers 5′-[…]-3′ and 5′-[…]-3′ were used in the thermal cycle: 50° C. for 30 minutes, 94° C. for 15 minutes, followed by 35 cycles of 94° C. for 30 seconds, 57° C. for 30 seconds, 72° C. for 30 seconds, then 75° C. for 15 seconds before the plate was read. JNK2 primers 5′-[…]-3′ and 5′-[…]-3′ were used in the thermal cycle: 50° C. for 30 minutes, 94° C. for 15 minutes, followed by 35 cycles of 94° C. for 30 seconds, 55° C. for 30 seconds, 72° C. for 30 seconds, then 75° C. for 15 seconds before the plate was read. All RT-PCR quantifications were performed in triplicate.

[3] = test system: laminA/C and GAPDH mRNAs; assay: Quantitative RT-PCR of laminA/C and GAPDH mRNAs; details: 5-FU for 24 h
Method: Epithelial cancer cell lines RKO, LoVo, DLD-1, HT29, U2OS, SAOS-2, MCF7, HTB-126, HT-1080 and SiHa were obtained from ATCC. Isogenic colorectal carcinoma cell lines HCT116 p53+/+ and HCT116 p53−/− were a kind gift of Bert Vogelstein. Non-cancer cells were normal diploid fibroblasts (NDF) and ARPE-19 immortalised retinal epithelial cells (ATCC), and normal human embryonic keratinocytes (NHEK, Invitrogen). Cells were cultured according to the supplier's protocols. siRNA sequences, transfection protocols and target validations were as described (Ref. 27 and Methods). […]
Cellular mRNAs were extracted for quantitative RT-PCR as previously described^27. Primers and thermal cycling conditions were as described^27 (Methods); quantifications were performed in triplicate. […]
Relative mRNA levels were quantitated by realtime RT-PCR. […] SIRT1 primers 5′-[…]-3′ and 5′-[…]-3′ were used in the thermal cycle: 50° C. for 30 minutes, 94° C. for 15 minutes, followed by 35 cycles of 94° C. for 30 seconds, 55° C. for 30 seconds, 72° C. for 30 seconds, then 75° C. for 15 seconds before the plate was read. JNK1 primers 5′-[…]-3′ and 5′-[…]-3′ were used in the thermal cycle: 50° C. for 30 minutes, 94° C. for 15 minutes, followed by 35 cycles of 94° C. for 30 seconds, 57° C. for 30 seconds, 72° C. for 30 seconds, then 75° C. for 15 seconds before the plate was read. […]

[4] = test system: HCT116 p53+/+ cells; assay: Apoptosis (annexin-V staining, phase contrast); details: 24 h drug exposure
Method: (§4) Phase contrast digital images were captured using an Axiovert 200M microscope (Zeiss). Apoptotic cells were identified by flow cytometry using annexin-V-Fluos (Roche) following the manufacturer's protocol.
as §3, with “Cells were harvested for analysis 24h following application of drugs, or at the indicated timepoints for time-course analysis. For combined transfection/drug experiments, drugs were applied approximately 20 hours post-transfection. Cells from combined transfection/drug experiments were harvested for analysis after 24 hours of drug exposure (˜48 hours post-transfection).” left out

[5] = test system: p53; assay: Immunoblotting of p53 and p53 K382Ac
Method: as §1, §2
as §3, with “For combined transfection/drug experiments, drugs were applied approximately 20 hours post-transfection. Cells from combined transfection/drug experiments were harvested for analysis after 24 hours of drug exposure (˜48 hours post-transfection).” left out

[6] = test system: ARPE-19 cells; assay: Cell viability / apoptosis (annexin-V staining, phase contrast); details: 24 h drug exposure
Method: as §4
as §3, with “Cells were harvested for analysis 24h following application of drugs, or at the indicated timepoints for time-course analysis. For combined transfection/drug experiments, drugs were applied approximately 20 hours post-transfection. Cells from combined transfection/drug experiments were harvested for analysis after 24 hours of drug exposure (˜48 hours post-transfection).” left out

[7] = test system: exogenous SIRT1 protein; assay: Exogenous SIRT1 expression after RNAi and cycloheximide time course, immunoblotting
Source text: FIG. 13 JNK-dependent phosphorylation at S27 stabilises exogenous SIRT1 protein. a. Schematic of experimental protocol for RNA′ followed by transfection with exogenous SIRT1 expression vector (see text). b. Exogenous expression of SIRT1 in intact HCT116 cells (lane 2), JNK2-depleted cells (lane 3) and JNK1-depleted cells (lane 4) detected by immunoblotting. Lane 1 =intact, non-transfected cells. Note that in both intact cells and JNK1-depleted cells the exogenous SIRT1 is phosphorylated on S27 and S47, whereas in JNK2-depleted cells S27P levels reflect endogenous SIRT1 (lanes 1 and 3, asterix), c, d. Time course analyses of SIRT1 protein levels and SIRT1 S27P following addition of cycloheximide in intact (panel c) and JNK2-depleted (panel d) HCT116 cells as indicated. e. SIRT1 protein levels at indicated times post treatment with cycloheximide (CHX) in intact cells (solid circles, solid line) and in JNK-depleted cells (open circles, dashed line).
To further explore the relationship between SIRT1 and JNK2 we expressed exogenous . SIRT1 in HCT116 p53+/+ cells in which JNK2 had been depleted by RNAI (Methods and FIG. 13a). When expressed in intact cells exogenous SIRT1 protein was phosphorylated at both S27 and S47 (FIG. 13b, lane 2). […] In addition total exogenous SIRT1 protein levels were reduced in JNK2-depleted cells (FIG. 13b, lane 3 cp. lane 2, SIRT1), consistent with reduced SIRT1 protein stability in the absence of S27 phosphorylation. […] S47 kinase/phosphatase activity. […] Thus JNK2, but not JNK1, is required for S27 phosphorylation and associated accumulation of SIRT1 protein.
Reduced accumulation of SIRT1 protein under these conditions is consistent with the premise that JNK2-dependent phosphorylation of SIRT1 at S27P stabilises the SIRT1 protein. This was confirmed by time course studies in which exogenous SIRT1 protein levels were monitored following inhibition of protein synthesis by cycloheximide. […] In intact cells exogenous SIRT1 protein was phosphorylated at S27 (FIG. 13c) and was also stable over 9 hr (FIGS. 13c and 13e). However, in JNK2-depleted cells exogenous SIRT1 protein lacked S27P (FIG. 13d) and protein levels declined with a half life of approximately 2 hrs (FIGS. 13d and 13e). We conclude that JNK2 is required, directly or indirectly, for phosphorylation of SIRT1 at S27 and that this is linked with stabilisation of SIRT1 protein in HCT116 cancer cells.

O=c1[nH]cc(F)c(=O)[nH]1 [5-FU, 5-fluorouracil]
total SIRT1 protein levels ([1]; ARPE-19 cells): increased 6 h after 5-FU treatment and subsequently declined by 24 h | SIRT1 S27 phosphorylation ([1]; HCT116 p53+/+ cells): lost | total SIRT1 protein levels ([1]; HCT116 p53+/+ cells): stable over 12 h, but declined by 24 h post-treatment | SIRT1 S27 phosphorylation ([1]; HCT116 p53−/− cells): retained | total SIRT1 protein levels ([1]; HCT116 p53−/− cells): remains constant up to at least 48 h | depletion of SIRT1 mRNA ([2]; 5-FU (375 μM) for 24 h, ARPE-19 and HCT116 cells (FIG. 2a)): 80% | SIRT1 mRNA estimated t1/2 ([2]; ARPE-19 cells): ~4 h | SIRT1 mRNA estimated t1/2 ([2]; HCT116 cells): < 2 h | lamin A/C and GAPDH mRNA levels [3]: relatively unaffected | apoptosis [4]: apoptosis | acetylation of p53 ([5]; ARPE-19 cells): undetectable | p53 response ([5]; ARPE-19 cells): attenuated | p53 K382 acetylation ([5]; HCT116 p53+/+ cells): induction | p53 response ([5]; HCT116 p53+/+ cells): sustained | cell viability [6]: remained viable

JNK1 siRNA: siRNA: sense 5′-CUCCACCACCAAAGAUCCC(dTdT)-3′, antisense 5′-GGGAUCUUUGGUGGUGGAG(dTdT)-3′ (RNA, 3' dTdT, backbone not given here)
SIRT1 protein levels, S27 or S47 phosphorylation ([1]; ARPE-19, HCT116 p53+/+ or HCT116 p53−/− cells): no effect | total SIRT1 protein levels ([1]; ARPE-19 cells): no effect | exogenous expression of SIRT1 and its phosphorylation ([7]; HCT116 p53+/+ cells): indistinguishable from the intact controls

JNK2 siRNA: siRNA: sense 5′-GAGCUGGUGAAAGGUUGUG(dTdT)-3′, antisense 5′-CACAACCUUU CACCAGCUC(dTdT)-3′ (antisense CACAACCUUUCACCAGCUC; RNA, 3' dTdT, backbone not given here)
total SIRT1 protein levels ([1]; ARPE-19 cells): reduced levels of SIRT1 protein | SIRT1 S27 phosphorylation ([1]; HCT116 p53+/+ cells): loss of SIRT1 S27P | SIRT1 S47P ([1]; HCT116 p53+/+ cells): barely detectable | total SIRT1 protein levels ([1]; HCT116 p53+/+ cells): reduced SIRT1 protein levels | SIRT1 protein levels or phosphorylation status ([1]; HCT116 p53−/− cells): little effect | SIRT1 mRNA levels ([2]; ARPE-19 cells, 24-96 h post-transfection): remained constant | SIRT1 mRNA levels ([2]; HCT116 p53+/+ cells): absence of any reduction | half life of exogenous SIRT1 protein ([7]; HCT116 cells, following addition of cycloheximide): approximately 2 hrs | S27 phosphorylation of exogenous SIRT1 protein ([7]; HCT116 p53+/+ cells): non-phosphorylated at S27 | exogenous SIRT1 S47P ([7]; HCT116 p53+/+ cells): clearly detectable | total exogenous SIRT1 protein levels ([7]; HCT116 p53+/+ cells): reduced
